Earlier results as cited in PMC8815272 (The Journal of Supercritical Fluids, 2022).
Structures can show the parent of a compound that is named as a salt. Where two headings read alike, the source gives them in different places.

Details: cited from earlier work
[1] = SC-CO2, 12–27 MPa, 308.15–338.15 K
[2] = SC-CO2, 12–33 MPa, 308.15–338.15 K
[3] = SC-CO2, 12–30 MPa, 308.2–338.2 K
[4] = SC-CO2, 10–30.3 MPa, 308.2–328.2 K
[5] = SC-CO2, 12.2–35.5 MPa, 308–348 K
[6] = SC-CO2, 14.9–25.5 MPa, 303–323 K
[7] = SC-CO2, 12–27 MPa, 308.2–338.2 K
[8] = SC-CO2, 10–26 MPa, 308.2–328.2 K
[9] = SC-CO2, 18.3–33.5 MPa, 308–328 K
[10] = SC-CO2, 15.5–30.5 MPa, 315–345 K
[11] = SC-CO2, 12.16–35.46 MPa, 308–348 K
[12] = SC-CO2, 12–30 MPa, 313.2–343.2 K
[13] = SC-CO2, 9.2–24.4 MPa, 308.2–328.2 K
[14] = SC-CO2, 9–25 MPa, 308.2–328.2 K

CCOC(=O)N1CCC(=C2c3ccc(Cl)cc3CCc3cccnc32)CC1 [Loratadine]
Crossover (MPa) [1]: 18–21 MPa
Mole fraction (y) [1]: 4.50 × 10^−6 to 1.30 × 10^−3

C[C@@H](O[C@H]1OCCN(Cc2n[nH]c(=O)[nH]2)[C@H]1c1ccc(F)cc1)c1cc(C(F)(F)F)cc(C(F)(F)F)c1 [Aprepitant]
Crossover (MPa) [2]: 15–18 MPa
Mole fraction (y) [2]: 4.50 × 10^−6 to 7.67 × 10^−5

CN1CCC(=C2c3ccccc3CC(=O)c3sccc32)CC1 [Ketotifen fumarate]
Crossover (MPa) [3]: 20 MPa
Mole fraction (y) [3]: 2.11 × 10^−5 to 1.07 × 10^−3

CC1COc2c(N3CCN(C)CC3)c(F)cc3c(=O)c(C(=O)O)cn1c23 (stereo not shown) [Ofloxacin]
Mole fraction (y) [4]: 0.4 × 10^−6 to 1.3 × 10^−6

CC[C@H]1OC(=O)[C@H](C)[C@@H](O[C@H]2C[C@@](C)(OC)[C@@H](O)[C@H](C)O2)[C@H](C)[C@@H](O[C@@H]2O[C@H](C)C[C@H](N(C)C)[C@H]2O)[C@](C)(O)C[C@@H](C)C(=O)[C@H](C)[C@@H](O)[C@]1(C)O [Erythromycin]
Crossover (MPa) [5]: 16.8–17 MPa
Mole fraction (y) [5]: 4.3 × 10^−5 to 3.12 × 10^−4

Cc1cnc(NC(=O)C2=C(O)c3ccccc3S(=O)(=O)N2C)s1 [Meloxicam sodium]
Crossover (MPa) [6]: 15–17 MPa
Mole fraction (y) [6]: 4.41 × 10^−6 to 12.76 × 10^−6

COc1ccc2nc([S@@+]([O-])Cc3ncc(C)c(OC)c3C)[nH]c2c1 [Esomeprazole]
Crossover (MPa) [7]: 22 MPa
Mole fraction (y) [7]: 1.11 × 10^-5 to 9.10 × 10^-4

Cn1cnc([N+](=O)[O-])c1Sc1ncnc2nc[nH]c12 [Azathioprine]
Crossover (MPa) (SC-CO2, 12–27 MPa, 308–338 K): 12–15 MPa
Mole fraction (y) (SC-CO2, 12–27 MPa, 308–338 K): 0.27 × 10^−5 to 1.83 × 10^−5

CC(C(=O)O)c1ccc(CC2CCCC2=O)cc1 (stereo not shown) [Loxoprofen]
Crossover (MPa) (SC-CO2, 12–40 MPa, 308–338 K): 20 MPa
Mole fraction (y) (SC-CO2, 12–40 MPa, 308–338 K): 1.04 × 10^−5 to 1.28 × 10^−3

CC(C)(O)C(=O)c1ccc(OCCO)cc1 [Irgacure® 2959, 2-Hydroxy-4'-(2-hydroxyethoxy)− 2-methylpropiophenone]
Crossover (MPa) [8]: 14 MPa
Mole fraction (y) [8]: 5.17 × 10^−6 to 2.83 × 10^−4

C[C@]12C/C(=C/O)C(=O)C[C@@H]1CC[C@@H]1[C@@H]2CC[C@@]2(C)[C@H]1CC[C@]2(C)O [Oxymetholone]
Crossover (MPa) [9]: 18 MPa
Mole fraction (y) [9]: 1.6 × 10^−5 to 1.49 × 10^−4

CC(=O)OCC(=O)[C@H]1CC[C@H]2[C@@H]3CCC4=CC(=O)CC[C@]4(C)[C@H]3CC[C@]12C [Desoxycorticosterone acetate]
Crossover (MPa) [10]: 24.5 MPa
Mole fraction (y) [10]: 5 × 10^−6 to 1.03 × 10^−4

CC[C@H]1OC(=O)[C@H](C)[C@@H](O[C@H]2C[C@@](C)(OC)[C@@H](O)[C@H](C)O2)[C@H](C)[C@@H](O[C@@H]2O[C@H](C)C[C@H](N(C)C)[C@H]2O)[C@](C)(O)C[C@@H](C)CN(C)[C@H](C)[C@@H](O)[C@]1(C)O [Azithromycin]
Crossover (MPa) [5]: 13.8–14 MPa
Mole fraction (y) [5]: 6.9 × 10^−5 to 2.73 × 10^−4

Nc1nc(N)c2nc(-c3ccccc3)c(N)nc2n1 [Triamterene, 2,4,7-Triamino-6-phenylpteridine]
Crossover (MPa) (SC-CO2, 12–27 MPa, 308–338 K): 19.2–19.5 MPa
Mole fraction (y) (SC-CO2, 12–27 MPa, 308–338 K): 0.03 × 10^−5 to 2.89 × 10^−5

CC(C)n1c(/C=C/C(O)CC(O)CC(=O)O)c(-c2ccc(F)cc2)c2ccccc21 (stereo not shown) [Fluvastatin]
Crossover (MPa) [11]: 17 MPa
Mole fraction (y) [11]: 5 × 10^−6 to 6 × 10^−4

CN1CCC(=C2c3ccccc3C=Cc3ccccc32)CC1 [Cyproheptadine]
Crossover (MPa) (SC-CO2, 16–40 MPa, 308–338 K): 20 MPa
Mole fraction (y) (SC-CO2, 16–40 MPa, 308–338 K): 3.35 × 10^−5 to 3.09 × 10^−3

CC(C(=O)O)c1ccc(-c2ccccc2)c(F)c1 (stereo not shown) [Flurbiprofen]
Crossover (MPa) (SC-CO2, 8–25 MPa, 303–323 K): 12 MPa
Mole fraction (y) (SC-CO2, 8–25 MPa, 303–323 K): 2.170 × 10^-5 to 19.683 × 10^-5

CC[C@H]1OC(=O)[C@H](C)[C@@H](O[C@H]2C[C@@](C)(OC)[C@@H](O)[C@H](C)O2)[C@H](C)[C@@H](O[C@@H]2O[C@H](C)C[C@H](N(C)C)[C@H]2O)[C@](C)(OC)C[C@@H](C)C(=O)[C@H](C)[C@@H](O)[C@]1(C)O [Clarithromycin]
Crossover (MPa) [5]: 15–15.2 MPa
Mole fraction (y) [5]: 1.31 × 10^−4 to 3.28 × 10^−4

C=CC1=C(C(=O)O)N2C(=O)[C@@H](NC(=O)/C(=N\OCC(=O)O)c3csc(N)n3)[C@H]2SC1 [Cefixime trihydrate]
Mole fraction (y) [9]: 1.6 × 10^−7 to 3.02 × 10^−7

CC(C)c1nc(N(C)S(C)(=O)=O)nc(-c2ccc(F)cc2)c1/C=C/[C@@H](O)C[C@@H](O)CC(=O)O [Rosuvastatin]
Crossover (MPa) [11]: 17 MPa
Mole fraction (y) [11]: 3 × 10^−6 to 2.44 × 10^−4

CC(C)c1c(C(=O)Nc2ccccc2)c(-c2ccccc2)c(-c2ccc(F)cc2)n1CC[C@@H](O)C[C@@H](O)CC(=O)O [Atorvastatin]
Crossover (MPa) [11]: 17 MPa
Mole fraction (y) [11]: 1.12 × 10^−6 to 1.45 × 10^−3

CCN(CC)CCNC(=O)c1c(C)[nH]c(/C=C2\C(=O)Nc3ccc(F)cc32)c1C [Sunitinib malate]
Mole fraction (y) (SC-CO2, 12–27 MPa, 308–338 K): 0.5 × 10^−5 to 8.56 × 10^−5

CCCCc1oc2ccccc2c1C(=O)c1cc(I)c(OCCN(CC)CC)c(I)c1 [Amiodarone hydrochloride]
Crossover (MPa) [12]: 19 MPa
Mole fraction (y) [12]: 2.510 × 10^−5 to 1.012 × 10^−3

CCC[C@@H]1C[C@@H](C(=O)N[C@@H]([C@H]2O[C@H](SC)[C@H](O)[C@@H](O)[C@H]2O)[C@H](C)Cl)N(C)C1 [Clindamycin]
Crossover (MPa) [5]: 14.8–15.2 MPa
Mole fraction (y) [5]: 1.77 × 10^−4 to 1.146 × 10^−3

CS(=O)(=O)OCCCCOS(C)(=O)=O [Busulfan]
Crossover (MPa) (SC-CO2, 12–40 MPa, 308–338 K): 16 MPa

CCn1cc(C(=O)O)c(=O)c2cc(F)c(N3CCNCC3)cc21 [Norfloxacin]
Mole fraction (y) [4]: 1.4 × 10^−6 to 24.4 × 10^−6

Cc1ccc(C(=O)c2ccc(CC(=O)O)n2C)cc1 [Tolmetin]
Crossover (MPa) (SC-CO2, 12–40 MPa, 308–338 K): 16 MPa
Mole fraction (y) (SC-CO2, 12–40 MPa, 308–338 K): 5.00 × 10^−5 to 2.59 × 10^−3

CCN(CC)c1ccc2cc(-c3nc4ccccc4[nH]3)c(=O)oc2c1 [Coumarin-7]
Crossover (MPa) (SC-CO2, 9–33 MPa, 308–338 K): 13–16 MPa
Mole fraction (y) (SC-CO2, 9–33 MPa, 308–338 K): 4.15 × 10^−6 to 1.00 × 10^−5

CNC(=O)c1cc(Oc2ccc(NC(=O)Nc3ccc(Cl)c(C(F)(F)F)c3)cc2)ccn1 [Sorafenib tosylate]
Mole fraction (y) (SC-CO2, 12–27 MPa, 308–338 K): 0.68 × 10^−6 to 12.57 × 10^−6

O=C1C=CC(=O)c2c(O)cccc21 [Juglone, 5-hydroxy-1,4-naphthoquinone]
Crossover (MPa) [13]: 21–22 MPa
Mole fraction (y) [13]: 2.0 × 10^−5 to 1.6 × 10^−3

CCC(C)(C)C(=O)O[C@H]1C[C@@H](C)C=C2C=C[C@H](C)[C@H](CC[C@@H]3C[C@@H](O)CC(=O)O3)[C@H]21 [Simvastatin]
Crossover (MPa) [11]: 17 MPa
Mole fraction (y) [11]: 2 × 10^−6 to 5.35 × 10^−4

O=C(O)c1cc(-c2ccc(F)cc2F)ccc1O [Diflunisal, 5-(2,4-difluorophenyl)− 2-hydroxybenzoic acid]
Crossover (MPa) [14]: 15 MPa
Mole fraction (y) [14]: 0.54 × 10^-6 to 8.07 × 10^-6

CC(C)N1c2ccccc2C(C)(C)C12C=Nc1c(cc(N3CCc4ccccc43)c3ccccc13)O2 (stereo not shown) [1,3-dihydro-3,3-dimethyl-1-isopropyl-6-(2,3)-(dihydroindole-1-yl)spiro[2 H-indole-2,3 − 3 H-naphtho[2,1-b][1,4]oxazine]]
Crossover (MPa) (SC-CO2, 10–26 MPa, 308–328 K): 17 MPa
Mole fraction (y) (SC-CO2, 10–26 MPa, 308–328 K): 2.2 × 10^-7 to 5.05 × 10^-6

Cc1ccc(NC(=O)c2ccc(CN3CCN(C)CC3)cc2)cc1Nc1nccc(-c2cccnc2)n1 [Imatinib mesylate]
Crossover (MPa) [7]: 18–21 MPa
Mole fraction (y) [7]: 1.0 × 10^−7 to 4.4 × 10^−6

C[C@@H]1CC[C@H]2[C@@H](C)C(=O)O[C@@H]3O[C@@]4(C)CC[C@@H]1[C@]32OO4 [Artemisinin]
Crossover (MPa) (SC-CO2, 10–25 MPa, 303–328 K): 13–17 MPa
Mole fraction (y) (SC-CO2, 10–25 MPa, 303–328 K): 10^-4 to 10^-3
